Data: PubChem BioAssay (NCI)
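Following 48 hours of exposure in 96-well plates, responses at five concentrations were used to interpolate endpoints linearly. TGI is the concentration that stops growth completely.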

Experiments:
Assay in all cases: inhibition of tumour cell growth, NCI panel, 48 h
786-0 renal = tested on: 786-0 renal
A549 NSCLC = tested on: A549 NSCLC
ACHN renal = tested on: ACHN renal
BT-549 breast = tested on: BT-549 breast
CAKI-1 renal = tested on: CAKI-1 renal
CCRF-CEM leukemia = tested on: CCRF-CEM leukemia
COLO 205 colon = tested on: COLO 205 colon
DU-145 prostate = tested on: DU-145 prostate
EKVX NSCLC = tested on: EKVX NSCLC
HCT-116 colon = tested on: HCT-116 colon
HCT-15 colon = tested on: HCT-15 colon
HL-60(TB) leukemia = tested on: HL-60(TB) leukemia
HOP-62 NSCLC = tested on: HOP-62 NSCLC
HT29 colon = tested on: HT29 colon
IGROV1 ovarian = tested on: IGROV1 ovarian
K-562 leukemia = tested on: K-562 leukemia
KM12 colon = tested on: KM12 colon
LOX IMVI melanoma = tested on: LOX IMVI melanoma
M14 melanoma = tested on: M14 melanoma
MALME-3M melanoma = tested on: MALME-3M melanoma
MDA-MB-231 breast = tested on: MDA-MB-231 breast
MDA-MB-435 = tested on: MDA-MB-435
MOLT-4 leukemia = tested on: MOLT-4 leukemia
NCI-H226 lung = tested on: NCI-H226 lung
NCI-H23 lung = tested on: NCI-H23 lung
NCI-H460 lung = tested on: NCI-H460 lung
NCI-H522 lung = tested on: NCI-H522 lung
NCI/ADR-RES ovarian = tested on: NCI/ADR-RES ovarian
OVCAR-3 ovarian = tested on: OVCAR-3 ovarian
OVCAR-4 ovarian = tested on: OVCAR-4 ovarian
OVCAR-5 ovarian = tested on: OVCAR-5 ovarian
OVCAR-8 ovarian = tested on: OVCAR-8 ovarian
PC-3 prostate = tested on: PC-3 prostate
RXF 393 renal = tested on: RXF 393 renal
SF-268 CNS = tested on: SF-268 CNS
SF-295 CNS = tested on: SF-295 CNS
SF-539 CNS = tested on: SF-539 CNS
SK-MEL-2 melanoma = tested on: SK-MEL-2 melanoma
SK-MEL-28 melanoma = tested on: SK-MEL-28 melanoma
SK-OV-3 ovarian = tested on: SK-OV-3 ovarian
SN12C renal = tested on: SN12C renal
SNB-19 CNS = tested on: SNB-19 CNS
SNB-75 CNS = tested on: SNB-75 CNS
SW-620 colon = tested on: SW-620 colon
T-47D breast = tested on: T-47D breast
TK-10 renal = tested on: TK-10 renal
U251 CNS = tested on: U251 CNS
UACC-257 melanoma = tested on: UACC-257 melanoma
UACC-62 melanoma = tested on: UACC-62 melanoma
UO-31 renal = tested on: UO-31 renal

With COC(=O)C1=C(OC(=O)/C(=C/c2c(F)cccc2F)c2ccccc2)C(C(=O)OC)[C@@]2(O)[C@@H](C(=O)OC)[C@H](C)C[C@@H]1[C@@H]2C(=O)OC (stereo not given in full) the TGI (786-0 renal) was greater than 100 µM, the TGI (A549 NSCLC) was greater than 100 µM and the TGI (ACHN renal) was greater than 100 µM. For the same compound, the TGI (BT-549 breast) was greater than 100 µM, the TGI (CAKI-1 renal) was greater than 100 µM and the TGI (CCRF-CEM leukemia) was greater than 100 µM. It also gave a TGI (COLO 205 colon) greater than 100 µM, a TGI (DU-145 prostate) greater than 100 µM and a TGI (EKVX NSCLC) greater than 100 µM. For the same compound, the TGI (HCT-116 colon) was greater than 100 µM, the TGI (HCT-15 colon) was greater than 100 µM and the TGI (HL-60(TB) leukemia) was greater than 100 µM. For the same compound, the TGI (HOP-62 NSCLC) was greater than 100 µM, the TGI (HT29 colon) was greater than 100 µM and the TGI (IGROV1 ovarian) was greater than 100 µM. It also gave a TGI (K-562 leukemia) greater than 100 µM, a TGI (KM12 colon) greater than 100 µM and a TGI (LOX IMVI melanoma) greater than 100 µM. For the same compound, the TGI (M14 melanoma) was greater than 100 µM, the TGI (MALME-3M melanoma) was greater than 100 µM and the TGI (MDA-MB-231 breast) was greater than 100 µM. It also gave a TGI (MDA-MB-435) greater than 100 µM, a TGI (MOLT-4 leukemia) greater than 100 µM and a TGI (NCI-H226 lung) greater than 100 µM. The TGI (NCI-H23 lung) was greater than 100 µM, the TGI (NCI-H460 lung) was greater than 100 µM and the TGI (NCI-H522 lung) was greater than 100 µM. It also gave a TGI (NCI/ADR-RES ovarian) greater than 100 µM, a TGI (OVCAR-3 ovarian) greater than 100 µM and a TGI (OVCAR-4 ovarian) greater than 100 µM. The TGI (OVCAR-5 ovarian) was greater than 100 µM, the TGI (OVCAR-8 ovarian) was greater than 100 µM and the TGI (PC-3 prostate) was greater than 100 µM. For the same compound, the TGI (RXF 393 renal) was greater than 100 µM, the TGI (SF-268 CNS) was greater than 100 µM and the TGI (SF-295 CNS) was greater than 100 µM. It also gave a TGI (SF-539 CNS) greater than 100 µM, a TGI (SK-MEL-2 melanoma) greater than 100 µM and a TGI (SK-MEL-28 melanoma) greater than 100 µM. The TGI (SK-OV-3 ovarian) was greater than 100 µM, the TGI (SN12C renal) was greater than 100 µM and the TGI (SNB-19 CNS) was greater than 100 µM. For the same compound, the TGI (SNB-75 CNS) was greater than 100 µM, the TGI (SW-620 colon) was greater than 100 µM and the TGI (T-47D breast) was greater than 100 µM. For the same compound, the TGI (TK-10 renal) was greater than 100 µM, the TGI (U251 CNS) was greater than 100 µM and the TGI (UACC-257 melanoma) was greater than 100 µM. The TGI (UACC-62 melanoma) was greater than 100 µM and the TGI (UO-31 renal) was 8.26 µM.
